Where two headings read alike, the source gives them in different places.
Columns and labels:
Format in all cases: in vivo, mice
[1] = tested on: NCI-H460 tumors
Source text: (§1) Female athymic nude mice (Harlan Sprague Dawley, Madison, Wis.) were utilized for all experiments. Animals were housed in ventilated rack caging with food and water ad libitum. The mice were acclimated for at least 5 days prior to tumor implantation.
The tumor model used in this study was NCI-H460 cell line which is a human lung cell line obtained from the ATCC (Manassas, Va.). […] Cells from in vitro passage 16 were those implanted SC into study mice.
Treatments were initiated on DPI 8.
(§2) Tumor size measurements were recorded 2-3 times/week from the treatment initiation until the termination of the study.
(§3) Mean, standard deviation and standard error of the mean were determined for tumor volume for all animal groups at all assessments. Student's t test was performed on tumor volumes at each measurement day, including at the end of the study, to determine whether there were any statistically significant differences between combination treatment groups and single monotherapy treatment groups.

[2] = tested on: CaLu-6 tumors
Source text: as §1
The tumor model used in this study was CaLu-6 cell line which is a human lung cell line obtained from the ATCC (Manassas, Va.). […] Cells from in vitro passage 10 were those implanted SC into study mice.
Treatments were initiated on DPI 9.
as §2, §3

[3] = tested on: H-Meso-1 tumors; conditions: G4 pemetrexed 100 mg/kg/day IP
Method: as §1
The tumor model used in this study was H-Meso-1 cell line which is a human mesothelioma cell line obtained from the DTP, DCTD tumor repository. […] Cells were implanted SC into study mice using a 1 ml syringe with a 13G trocar: 5×10^6 cells/mouse in 0.2 ml 50% Matrigel/50% RPMI medium of H-Meso-1 without serum or antibiotics. Bacterial culture was taken on cells used to implant the study.
Treatments were initiated on DPI 6.
as §2, §3

[4] = day 13, G3 pemetrexed 125 mg/kg/day IP
[5] = day 13, G4 pemetrexed 100 mg/kg/day IP
[6] = day 16, G3 pemetrexed 125 mg/kg/day IP
[7] = day 16, G4 pemetrexed 100 mg/kg/day IP
[8] = day 20, G3 pemetrexed 125 mg/kg/day IP
[9] = day 20, G4 pemetrexed 100 mg/kg/day IP
[10] = day 23, G3 pemetrexed 125 mg/kg/day IP
[11] = day 23, G4 pemetrexed 100 mg/kg/day IP

Nc1nc2[nH]cc(CCc3ccc(C(=O)N[C@@H](CCC(=O)O)C(=O)O)cc3)c2c(=O)[nH]1 [pemetrexed]
% T/C on day 8 ([1]; G3 pemetrexed 125 mg/kg/day IP): 102.6%
% T/C on day 10 ([1]; G3 pemetrexed 125 mg/kg/day IP): 119.0%
% T/C on day 13 ([1]; G3 pemetrexed 125 mg/kg/day IP): 67.5%
% T/C on day 16 ([1]; G3 pemetrexed 125 mg/kg/day IP): 71.0%
% T/C on day 20 ([1]; G3 pemetrexed 125 mg/kg/day IP): 70.4%
% T/C on day 23 ([1]; G3 pemetrexed 125 mg/kg/day IP): 85.4%
% T/C on day 28 ([1]; G3 pemetrexed 125 mg/kg/day IP): 72.9%
% T/C on day 31 ([1]; G3 pemetrexed 125 mg/kg/day IP): 82.6%
% T/C on day 8 ([1]; G4 pemetrexed 100 mg/kg/day IP): 103.0%
% T/C on day 10 ([1]; G4 pemetrexed 100 mg/kg/day IP): 107.3%
% T/C on day 13 ([1]; G4 pemetrexed 100 mg/kg/day IP): 75.7%
% T/C on day 16 ([1]; G4 pemetrexed 100 mg/kg/day IP): 72.4%
% T/C on day 20 ([1]; G4 pemetrexed 100 mg/kg/day IP): 72.9%
% T/C on day 23 ([1]; G4 pemetrexed 100 mg/kg/day IP): 86.3%
% T/C on day 28 ([1]; G4 pemetrexed 100 mg/kg/day IP): 76.8%
% T/C on day 31 ([1]; G4 pemetrexed 100 mg/kg/day IP): 96.9%
% Inhibition ([1]; day 8, G3 pemetrexed 125 mg/kg/day IP): −2.6%
% Inhibition ([1]; day 8, G4 pemetrexed 100 mg/kg/day IP): −3.0%
% Inhibition ([1]; day 10, G3 pemetrexed 125 mg/kg/day IP): −19.0%
% Inhibition ([1]; day 10, G4 pemetrexed 100 mg/kg/day IP): −7.3%
% Inhibition [1, 4]: 32.5%
% Inhibition [1, 5]: 24.3%
% Inhibition [1, 6]: 29.0%
% Inhibition [1, 7]: 27.6%
% Inhibition [1, 8]: 29.6%
% Inhibition [1, 9]: 27.1%
% Inhibition [1, 10]: 14.6%
% Inhibition [1, 11]: 13.7%
% Inhibition ([1]; day 28, G3 pemetrexed 125 mg/kg/day IP): 27.1%
% Inhibition ([1]; day 28, G4 pemetrexed 100 mg/kg/day IP): 23.2%
% Inhibition ([1]; day 31, G3 pemetrexed 125 mg/kg/day IP): 17.4%
% Inhibition ([1]; day 31, G4 pemetrexed 100 mg/kg/day IP): 3.1%
% T/C on day 9 ([2]; G3 pemetrexed 125 mg/kg/day IP): 99.6%
% T/C on day 16 ([2]; G3 pemetrexed 125 mg/kg/day IP): 86.6%
% T/C on day 20 ([2]; G3 pemetrexed 125 mg/kg/day IP): 104.8%
% T/C on day 23 ([2]; G3 pemetrexed 125 mg/kg/day IP): 98.7%
% T/C on day 27 ([2]; G3 pemetrexed 125 mg/kg/day IP): 87.9%
% T/C on day 30 ([2]; G3 pemetrexed 125 mg/kg/day IP): 90.0%
% T/C on day 34 ([2]; G3 pemetrexed 125 mg/kg/day IP): 89.1%
% T/C on day 42 ([2]; G3 pemetrexed 125 mg/kg/day IP): 94.2%
% T/C on day 9 ([2]; G4 pemetrexed 100 mg/kg/day IP): 103.4%
% T/C on day 13 ([2]; G4 pemetrexed 100 mg/kg/day IP): 126.5%
% T/C on day 16 ([2]; G4 pemetrexed 100 mg/kg/day IP): 103.5%
% T/C on day 20 ([2]; G4 pemetrexed 100 mg/kg/day IP): 120.6%
% T/C on day 23 ([2]; G4 pemetrexed 100 mg/kg/day IP): 111.5%
% T/C on day 27 ([2]; G4 pemetrexed 100 mg/kg/day IP): 101.8%
% T/C on day 30 ([2]; G4 pemetrexed 100 mg/kg/day IP): 105.8%
% T/C on day 34 ([2]; G4 pemetrexed 100 mg/kg/day IP): 102.2%
% T/C on day 42 ([2]; G4 pemetrexed 100 mg/kg/day IP): 100.5%
% Inhibition ([2]; day 9, G3 pemetrexed 125 mg/kg/day IP): 0.4%
% Inhibition ([2]; day 9, G4 pemetrexed 100 mg/kg/day IP): −3.4%
% Inhibition [2, 4]: −16.6%
% Inhibition [2, 5]: −26.5%
% Inhibition [2, 6]: 13.4%
% Inhibition [2, 7]: −3.5%
% Inhibition [2, 8]: −4.8%
% Inhibition [2, 9]: −20.6%
% Inhibition [2, 10]: 1.3%
% Inhibition [2, 11]: −11.5%
% Inhibition ([2]; day 27, G3 pemetrexed 125 mg/kg/day IP): 12.1%
% Inhibition ([2]; day 27, G4 pemetrexed 100 mg/kg/day IP): −1.8%
% Inhibition ([2]; day 30, G3 pemetrexed 125 mg/kg/day IP): 10.0%
% Inhibition ([2]; day 30, G4 pemetrexed 100 mg/kg/day IP): −5.8%
% Inhibition ([2]; day 34, G3 pemetrexed 125 mg/kg/day IP): 10.9%
% Inhibition ([2]; day 34, G4 pemetrexed 100 mg/kg/day IP): −2.2%
% Inhibition ([2]; day 42, G3 pemetrexed 125 mg/kg/day IP): 5.8%
% Inhibition ([2]; day 42, G4 pemetrexed 100 mg/kg/day IP): −0.5%
% T/C on day 6 [3]: 102.1%
% T/C on day 7 [3]: 100.2%
% T/C on day 9 [3]: 109.0%
% T/C on day 12 [3]: 105.7%
% T/C on day 14 [3]: 124.2%
% T/C on day 16 [3]: 128.6%
% T/C on day 19 [3]: 110.4%
% T/C on day 22 [3]: 100.8%
% T/C on day 26 [3]: 122.9%
% Inhibition ([3]; day 6): −2.1%
% Inhibition ([3]; day 7): −0.2%
% Inhibition ([3]; day 9): −9.0%
% Inhibition ([3]; day 12): −5.7%
% Inhibition ([3]; day 14): −24.2%
% Inhibition ([3]; day 16): −28.6%
% Inhibition ([3]; day 19): −10.4%
% Inhibition ([3]; day 22): −0.8%
% Inhibition ([3]; day 26): −22.9%
% Inhibition ([3]; day 29): −22.4%

Source: patent publication US20110070232A1, “Combination Therapy with an Antitumor Alkaloid” (Pharma Mar, S.A., priority 2008, published 2011)
